The values below come from patent publication US20250032465A1, “METHODS OF TREATING CNS DISORDERS” (HANGZHOU HIGHLIGHTLL PHARMACEUTICAL CO., LTD, priority 2021, published 2025).

Molecules are shown by their SMILES. Entries after “also recorded” stand apart in the source; their conditions may differ. Read-outs that look alike come from different tables or passages of the source.

For series [1], the target named is T1, JAK1 (Homo sapiens, UniProt P23458).
T1 construct: purchased Reaction Biology Corp, Malvern, PA (contract testing)
Nature of the series: JAK1 biochemical test (33P-ATP filter binding, Reaction Biology). As to conditions: read-out: Inhibition of JAK1 (IC50). As to the method: The tests were conducted by Reaction Biology Corp, Malvern, PA (Anastassiadis et al. Nat Biotechnol. 2011; 29(11):1039-45). The step is briefly described as follows, using the basic reaction buffer: 20 mM Hepes (pH 7.5), 10 mM MgCl2, 1 mM EGTA, 0.02% Brij35, 0.02 mg/ml BSA, 0.1 mM Na3VO4, 2 mM DTT and 1% DMSO. The required cofactor was added to each kinase reaction respectively. Each reaction was performed according to the following reaction steps: 1) Preparing the designated substrate in the newly prepared basic reaction buffer; 2) Transferring the required cofactor to the above matrix solution; 3) Transferring the designated kinase to the substrate solution and mixing well slightly; 4) Transferring a compound of Formula (I) in DMSO to the kinase reaction mixture with Acoustic technique (Echo550; nanoliter range), culturing for 20 minutes at room temperature; 5) Introducing ^33P-ATP (specific activity: 10 μCi/μl) to the reaction mixture to trigger a reaction; 6) Culturing at room temperature and conducting a kinase reaction for 2 hours; 7) Plotting the reaction on P81 ion exchange paper; and 8) Testing the kinase activity with a filter binding assay. The results shown in Table 1 indicate that compounds of Formulae (I)-(III) are potent and selective TYK2/JAK1 inhibitors.

A further series concerns the target T2, TYK2 (Homo sapiens, UniProt P29597).
T2 construct: purchased Reaction Biology Corp, Malvern, PA (contract testing)
Nature of the series: TYK2 cellular ELISA assay using NK92 cells (IL-12 and IL-18 stimulated IFNγ excretion). It is filed as cell-based. As to conditions: IL-12 2 ng/ml, IL-18 5 ng/ml, 24 hours. As to the method: This testing was performed to test cellular TYK2 activity using IL-12 and IL-18 stimulated IFNγ excretion assay in NK92 cells. The testing was performed according to the following procedure: 1) Replace NK92 cell media containing IL-2 with media not containing IL-2, maintain overnight; 2) Plate NK92 cells to 96-well plate at density of ˜150,000 cell/well; 3) Add different concentrations of test article to wells, maintain in incubator at 37° C. and 5% CO2 for 1 hour; 4) Add IL-12 (final concentration: 2 ng/ml) and IL-18 (final concentration: 5 ng/ml) to stimulate for 24 hours in the above incubator; 5) After 24 hours, centrifuge at 2000 rpm for 5 min, take the supernatant and analyze according to instructions of the ELISA kit. In this assay, compounds of Formulae (II) and (III) had IC50<100 nM.

Series [2] addresses T1, JAK1. The experiment in a line: JAK1 cellular ELISA assay using PBMC cells (IL-6 stimulated STAT3 phosphorylation). It is filed as cell-based. Conditions: IL-6 100 ng/ml, 25 min. The method, then:
This testing was performed to test cellular JAK1 activity using the IL-6 stimulated STAT3 phosphorylation assay in PBMC cells. The testing was performed according to the following procedure: 1) Plate PBMC cells to 96-well plate at density of ˜300,000 cell/well; 2) Add different concentrations of test article to wells, maintain in incubator at 37° C. and 5% CO2 for 1 hour; 3) Add IL-6 (final concentration: 100 ng/ml) to stimulate for 25 min in the above incubator; 4) After stimulation, transfer the suspension to 1.5 mL tube, centrifuge at 200 g for 5 min, collect cells, add 100 μL 1× lysate, lyse on ice for 1 hour; 5) Centrifuge at 4° C. and 12000 rpm for 10 min, take the supernatant and analyze according to instructions of the ELISA kit. In this assay, compounds of Formulae (II) and (III) had IC50<300 nM.

Series [3] is described as follows: Brain penetration in rats. It is filed as in vivo. As to conditions: male, rat, 10 mg/kg oral gavage, 8 hour post-dosing. The method, then:
This testing was performed to test the ability of compounds to penetrate the blood-brain-barrier in rats. The testing was performed according to the following procedure: 1) For each compound, take 3 male rats with body weight of 217-228 g, formulate compound using 0.5% HPMC/water suspension at concentration of 1 mg/ml; 2) After fasting overnight, administer compound at 10 mg/kg by oral gavage; 3) Take plasma samples at 1, 2, 4, 8 hours post-dosing; 4) At 8 hour post-dosing, also take brain tissues and cerebrospinal fluid (CSF); 5) Analyze compound concentration in plasma, brain tissue, and CSF using LC-MS/MS method.

The next series concerns MOG35-55-EAE model. Nature of the series: MOG35-55 induced experimental autoimmune encephalomyelitis (MOG35-55-EAE) model. In kind it is in vivo, female C57BL/6 mice. The source says: MOG-EAE is one of the most common and widely used animal models for multiple sclerosis, which is a chronic inflammatory disease in the central nervous system that is characterized by axon demyelination and degeneration. In this mouse model, animals were immunized with myelin oligodendrocyte glycoprotein (MOG) peptide in Complete Freund's Adjuvant (CFA) firstly and then boosted with Pertussis Toxin. Upon immunization, mice developed chronic inflammation in the central nervous system, which led to axon dysfunction, and associated movement disabilities and paralysis. The disease onset usually starts from Day 10 and lasts for 20-30 days. This model allows specific investigation of the neuroinflammatory signaling pathways and evaluation of the efficacy of novel anti-inflammatory therapies. […] Mortality and observed clinical signs were recorded for individual animals in detail. Body weight and disease activity index (DAI) were measured twice per week after disease induction and then every other day starting from Day 10 to the study end. The DAI was scored according to the scoring criteria: 0=normal; 1=loss of tail tone; 2=loss of tail tone and hind limb weakness; 3=severe weakness in both limbs/single limb paralysis; 4=paralysis of two or more limbs; 5=death. […] The body weights and disease score were measured by using StudyDirector™ software (version 3.1.399.19). […]

A further series concerns BV2 cells. The experiment in a line: IL-6, TNF and MCP-1 production in LPS-stimulated BV2 cells (CBA assay). It is filed as cell-based. As to conditions: Mus musculus, BV-2, LPS-treated BV2 cells.
Setting [4] is: read-out: Inhibition of IL-6 production.
Where [5] appears, read: read-out: Inhibition of MCP-1 production.
Setting [6] is: read-out: Inhibition of TNF production.

T1 sequence (P23458 whole entry): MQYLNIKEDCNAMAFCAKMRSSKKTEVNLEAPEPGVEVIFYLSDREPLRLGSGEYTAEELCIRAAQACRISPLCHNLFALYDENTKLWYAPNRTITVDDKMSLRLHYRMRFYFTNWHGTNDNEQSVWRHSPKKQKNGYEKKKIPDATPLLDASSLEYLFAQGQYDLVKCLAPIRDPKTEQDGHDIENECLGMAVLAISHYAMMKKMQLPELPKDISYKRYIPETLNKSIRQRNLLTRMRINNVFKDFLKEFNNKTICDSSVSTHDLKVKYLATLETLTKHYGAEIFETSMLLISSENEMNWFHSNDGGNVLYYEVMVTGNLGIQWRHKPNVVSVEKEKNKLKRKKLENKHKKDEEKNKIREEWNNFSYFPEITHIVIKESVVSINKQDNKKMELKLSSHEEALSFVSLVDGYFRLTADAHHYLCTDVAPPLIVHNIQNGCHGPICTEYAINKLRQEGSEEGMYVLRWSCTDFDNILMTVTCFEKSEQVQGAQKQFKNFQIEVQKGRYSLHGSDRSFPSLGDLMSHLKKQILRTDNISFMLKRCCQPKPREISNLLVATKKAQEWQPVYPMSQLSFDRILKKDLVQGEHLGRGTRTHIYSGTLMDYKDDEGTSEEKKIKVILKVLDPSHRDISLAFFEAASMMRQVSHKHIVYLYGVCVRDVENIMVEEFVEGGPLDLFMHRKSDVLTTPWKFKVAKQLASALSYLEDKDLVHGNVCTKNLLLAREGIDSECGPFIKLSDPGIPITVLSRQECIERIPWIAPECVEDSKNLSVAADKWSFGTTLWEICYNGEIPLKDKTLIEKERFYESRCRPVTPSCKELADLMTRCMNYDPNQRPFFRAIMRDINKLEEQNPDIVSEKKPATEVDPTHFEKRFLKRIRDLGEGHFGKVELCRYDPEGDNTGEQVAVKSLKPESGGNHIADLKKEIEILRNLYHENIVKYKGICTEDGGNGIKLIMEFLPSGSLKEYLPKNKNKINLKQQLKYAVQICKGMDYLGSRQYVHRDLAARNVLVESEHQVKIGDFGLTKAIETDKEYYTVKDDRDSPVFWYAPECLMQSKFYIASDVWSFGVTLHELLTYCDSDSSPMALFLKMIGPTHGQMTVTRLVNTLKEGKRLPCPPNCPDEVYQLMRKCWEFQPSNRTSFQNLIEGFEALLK
T2 sequence (P29597 whole entry): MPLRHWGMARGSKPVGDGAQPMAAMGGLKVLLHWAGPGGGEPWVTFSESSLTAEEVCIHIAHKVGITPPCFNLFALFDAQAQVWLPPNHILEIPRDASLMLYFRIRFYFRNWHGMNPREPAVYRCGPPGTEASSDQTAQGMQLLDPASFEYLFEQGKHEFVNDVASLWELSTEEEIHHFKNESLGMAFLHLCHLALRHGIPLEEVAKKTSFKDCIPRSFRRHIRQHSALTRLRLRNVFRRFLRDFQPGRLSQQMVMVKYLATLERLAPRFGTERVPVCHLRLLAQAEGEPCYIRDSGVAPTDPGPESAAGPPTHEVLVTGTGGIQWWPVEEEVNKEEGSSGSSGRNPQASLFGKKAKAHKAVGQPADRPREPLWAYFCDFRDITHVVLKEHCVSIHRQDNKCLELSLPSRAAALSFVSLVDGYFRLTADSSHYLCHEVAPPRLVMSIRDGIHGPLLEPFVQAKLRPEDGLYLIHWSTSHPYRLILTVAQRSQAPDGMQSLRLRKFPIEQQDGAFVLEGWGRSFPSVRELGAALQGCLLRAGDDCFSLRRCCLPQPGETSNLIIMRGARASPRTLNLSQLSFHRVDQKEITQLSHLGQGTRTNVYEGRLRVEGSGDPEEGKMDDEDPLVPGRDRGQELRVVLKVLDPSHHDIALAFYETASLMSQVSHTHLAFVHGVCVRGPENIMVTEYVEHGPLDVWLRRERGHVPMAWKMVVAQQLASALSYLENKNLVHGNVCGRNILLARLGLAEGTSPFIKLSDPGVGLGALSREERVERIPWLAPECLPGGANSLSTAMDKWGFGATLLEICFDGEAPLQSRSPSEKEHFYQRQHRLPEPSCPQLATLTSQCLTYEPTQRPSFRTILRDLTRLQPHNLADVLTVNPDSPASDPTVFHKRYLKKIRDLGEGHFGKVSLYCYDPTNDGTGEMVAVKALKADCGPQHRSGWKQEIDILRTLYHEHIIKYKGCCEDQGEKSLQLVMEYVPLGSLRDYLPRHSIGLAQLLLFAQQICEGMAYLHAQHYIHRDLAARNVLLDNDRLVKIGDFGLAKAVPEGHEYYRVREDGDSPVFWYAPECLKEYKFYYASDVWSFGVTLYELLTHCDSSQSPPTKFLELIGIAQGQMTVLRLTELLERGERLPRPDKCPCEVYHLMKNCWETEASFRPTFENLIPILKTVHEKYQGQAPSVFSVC

Turning to `Cc1nc2cnc3ccoc3c2n1[C@H]1CC[C@H](CC#N)OC1` [Formula (II)], the IC50 at JAK1 [1] is less than 0.01 µM; on TYK2, less than 0.1 µM; on JAK1 [2], less than 0.3 µM. Moreover, the Kp at 8 h in series [3] (CSF/plasma, read-out: CSF (ng/ml)/ Plasma (ng/ml)) was more than 0.15; in series [3] (brain/plasma, read-out: Brain (ng/ml)/ Plasma (ng/ml)), more than 0.4. Further, the “Disease Activity Index (DAI)” value in the series on MOG35-55-EAE model (30 mg/kg BID oral gavage from Day 10, vs vehicle, Days 10-26) is reported as “reduced disease activity; also recorded: lower DAI”. Further, in the series with MOG35-55-EAE model (30 mg/kg BID oral gavage, mice with EAE), the Body weight loss result was “significantly reduced body weight loss”. Also, the inhibition at 5 µM in the series on BV2 cells (setting [4]) amounted to 72.4%; in the series on BV2 cells (setting [5]), 83.3%; in the series on BV2 cells (setting [6]) it was 81.2%. Also, the inhibition at 15 µM turned out to be 83.6% in the series on BV2 cells (setting [4]), 111% with BV2 cells (setting [5]) and 118% in the series on BV2 cells (setting [6]).
